Test system: HsmiR155
Experiment: Relative expression of Pre-miR155 in transfected HeLa cells
Type: cell-based, Homo sapiens
Conditions: HeLa cells transfected to overexpress HsmiPEP155
Text: The DNA fragments of interest (HsmiPEP155 and the mutated miPEP) were synthesized or amplified by PCR using specific primers, and then cloned using the enzymes XhoI and NotI into a pUAS plasmid permitting their overexpression by means of the GAL4 transcription factor, the expression of which is controlled by a constitutive strong promoter.
The different constructs were produced either by PCR amplification on genomic DNA of HeLa cells, or by RT-PCR on total RNAs of L428 human cells. The amplified PCR fragments are digested with the HindIII/EcoRI restriction enzymes and then cloned into the vector pcDNA3.1. The DH5α strain of Escherichia coli is electroporated and then cultured on a solid medium (2YT+agar+ampicillin). The plasmid DNA from different clones is then prepared and sequenced for verification. The constructs are then prepared using the QIAfilter Plasmid Midi kit (QIAGEN) and stored at −20° C.
The HeLa cells (established tumour line, ATCC CCL-2.2) are cultured in a 6-well plate in complete medium [(DMEM (1x)+Glutamax+4.5 g/L glucose without pyruvate+1x penicillin/streptomycin+1 mM Na-pyruvate+10% calf serum] and placed in an incubator at 37° C. and 5% CO2.
The cells are transfected when they are at 50% confluence. […]
10-15 μg of total RNAs is then analysed by Northern blot on 15% acrylamide gel [solution of acrylamide/40% bis-acrylamide, ratio 19:1], 7M urea in TBE 1x. […]

MEMALMVAQTRKGKSVV (listed as Homo sapiens) [HsmiPEP155]
relative expression of Pre-miR155: increases the expression of HsmiR155
